{"source": "patent EP0041021A2", "about": "“Cyclopropane carboxylic acid derivatives, their preparation, their use against parasites in plants and animals, their compositions and their intermediates” (ROUSSEL-UCLAF, priority 1980, dated 1981)", "key": {"moustiques Culex pipiens": {"tested_on": "moustiques Culex pipiens", "assay": "Insecticidal activity on Culex pipiens mosquitoes, fumigant coil", "format": "in vivo", "conditions": "fumigant coil, 0,60% active ingredient by weight of coil", "protocol": "Exemple 6 : Etude de l'activité insecticide. sur moustiques Culex pipiens, du composé ce l'exemple 1 utilisé sous forme de serpentin fumigène.\nDes supports neutres de serpentins fumigènes sont imprégnés de matière active en solution dans l'acétone. On lâche dans un cylindre fermé, en verre, de 13,50 dm3, 20 moustiques femelles agées de 4 à 5 jours et intrcduit, pendant 2 minutes, un serpentin fumigène se consumant à une extrémité. On effectue le contrôle de knock-down toutes les minutes et arrête 1.essai 5 minutes après que tous les insectes aient été abattus."}, "mouche domestique": {"tested_on": "mouche domestique", "assay": "Knock-down activity on housefly, direct spray in Kearns and March cylinder", "format": "in vivo", "conditions": "acetone (5%) + Isopar L", "protocol": "Exemple 4 : Etude de l'activité de choc sur mouche domestique.\nLes insectes tests sont des mouches domestiques femelles âgées de 4 à 5 jours. On opère par pulvérisation directe en cylindre de Kearns et March en utilisant comme solvant un mélange d'acétone (5%) et d'Isopar L (solvant pétrolier) (quantité de solvant utilisée 2 ml en une seconde). On utilise 50 insectes par dose. On effectue les contrôles toutes les minutes jusqu'à 10 minutes, puis à 15 minutes et l'on détermine le KT 50 par les méthodes habituelles."}}}
{"molecule": "C=CCC1=C(C)[C@@H](OC(=O)[C@@H]2[C@H](/C=C\\C(=O)OC)C2(C)C)CC1=O", "note": "[Exemple 1, (R cis ΔZ) 2,2-diméthl-3/ 3-méthoxy-oxo-1-propenyl/cyclopropane carboxylatede (1S) 2-méthyl-4-oxo 3-(2-propenyl)-2-cyclopenten-1-yle]", "values": [{"measurement": "effet létal", "setting": "moustiques Culex pipiens", "value": "98,3%"}, {"measurement": "ET 50", "setting": "moustiques Culex pipiens; 20 female mosquitoes, 13,50 dm3 cylinder", "value": "5,42 mn"}, {"measurement": "KT 50", "setting": "mouche domestique; concentration 0,5 g/litre", "value": "1,26 mn"}, {"measurement": "KT 50", "setting": "mouche domestique; concentration 0,25 g/litre", "value": "2,02 mn"}]}
